Measurements: US11673881B2, “Isoquinolin-3-yl carboxamides and preparation and use thereof” (BioSplice Therapeutics, Inc., priority 2016, dated 2023)

Tests used:
[1] = tested on: Tau phosphorylation at Ser396 (pSer396); assay: Tau phosphorylation assay (pSer396) in SH-SY5Y cells; assay type: cell-based, human; details: overnight (16-18 h) exposure, pSer396 Tau ELISA
Experimental: Two days before treatment, cells were seeded onto 96 well plates at 5×10^4 cells/well.
Wells were visually checked for cell death or change in morphology and supernatants were tested for cytotoxicity by measurement of lactate dehydrogenase release (LDH, CytoToxOne kit, Promega) if necessary.
Cells were lysed with RIPA buffer complemented with phosphatase and protease inhibitors then lysates were spun down at 12,000 g for 10 min to remove any cellular debris. Lysates are then either directly tested for pSer396 by ELISA (Life Technology, Kit KHB7031) or loaded on NuPage Bis-Tris gels for western blot analysis. Colorimetric detection of ELISA signal is performed by Cytation3 plate reader (Biotek) and the chemiluminescence signal for HRP-linked antibodies used in western blotting is detected using a Carestream Image Station. The same pSer396 antibody is used for detection of pTau in both assays.

IL-6 = IL-6 inhibition in LPS-stimulated human peripheral blood mononuclear cells (HTRF); assay type: cell-based; details: LPS-stimulated huPBMCs, IL-6 HTRF
Experimental: After 22 hour incubation, a mixture of anti-IL6 XL665 and anti-IL-6 Cryptate diluted in reconstitution buffer (Catalog #62IL6PEC, Cisbio Inc., Bedford, Mass.) was added to each well. […] All samples were processed in duplicate. […] EC50 was determined using software generated by Dotmatics Limited (Windhill Bishops Stortford Herts, UK) using the Levenberg-Marquardt 4 parameter fitting procedure with finite different gradients.

[2] = tested on: Wnt activity, Sp5-Luc reporter in SW480 colon carcinoma cells; assay: Screening assay for Wnt activity (Sp5-Luc reporter gene assay); assay type: cell-based, human
Experimental: The screening assay for Wnt activity is described as follows.
Following incubation, 15 μl of BriteLite Plus luminescence reagent (Perkin Elmer) was added to each well of the 384-well assay plates. The plates were placed on an orbital shaker for 2 min and then luminescence was quantified using the Envision (Perkin Elmer) plate reader.

[3] = tested on: LL29 cells (αSMA positive cells); assay: Fibrosis assay: TGF-β1 treated primary human fibroblasts from IPF patients, αSMA staining; assay type: cell-based; details: LL29 cells treated with TGF-β1, 4 days
[4] = tested on: SW480 colon carcinoma cells; assay: Cell viability assay (CellTiter-Glo); assay type: cell-based, human; details: four days incubation

- EC50 [1]: 0.762 µM
- percent inhibition at 10 μM (given where EC50 >10 μM) (IL-6; 10 μM): 3.9%
- EC50 (IL-6): > 10 µM
- EC50 ([2]; incubated 36 to 48 hours): > 10 µM
- EC50 [4]: > 10 µM
Compound: Cn1cc(-c2ccc3cnc(NC(=O)C(C)(C)F)cc3c2)nn1 [Compound 312, 2-Fluoro-2-methyl-N-(6-(1-methyl-1H-1,2,3-triazol-4-yl)isoquinolin-3-yl) propanamide]
- percent inhibition at 10 μM ([2]; given for EC50 of >10 μM): 23.8%
- percent inhibition at 10 μM (given where EC50 >10 μM) ([3]; 10 μM): 36.5%
- EC50 ([3]; αSMA staining): > 10 µM
